According to patent publication US5455161A, “Method for the monitoring of multiple anticancer drug resistance” (priority 1992, dated 1995):
Numbered stars: 1 amine (or outer) side, 2 acyl side, 3 side chain; on linkers, the order of the positions; unused ones are H or OH. Bridge positions count the residues as written; N and C are the ends. Square brackets hold non-standard residues; d marks the D form. Peptide text beside a SMILES is read from it. I, II: the chains in the order shown. Actinocin(9to1) = Cc1c2oc3c(C)ccc(C(=O)[*:1])c3nc-2c(C(=O)[*:2])c(N)c1=O; NMeV = CN[C@H](C(=O)O)C(C)C; Sar = CNCC(=O)O

Columns and labels:
AA8 cells [1] = test: ODC (ornithine decarboxylase activity) assay of cellular drug sensitivity, wild type AA8 cells; assay type: cell-based, Chinese hamster; settings: for IC50: Cricetulus griseus, read-out: IC50 (ODC assay) AA8
Procedure: (§1) The protein determinations were carried out according to the method of Bradford (Anal.Biochem. 72, 248-54, 1976), using lysozyme, triple crystallization and dialysis, as a standard.
(§2) Monolayers of parental AA8 and multidrug resistant T19 cells grown for 4 days at 37° C., were exposed to various concentrations of the antimitotic agent colchinine, for 6 hours, 18 hours and 48 hours and then the activity of ornithine decarboxylase was determined.
(§3) In the same manner, this assay was tested with various anticancer drugs of various structure and distinct mechanisms of action. The following cytotoxic agents were tested: vinca alkaloids, anthracyclines, epipodophyllotoxins, actinomycin D and antifolates.

AA8 cells [2] = test: cells; assay type: cell-based, Chinese hamster; settings: for IC50: Cricetulus griseus, CHO-AA8, read-out: LD50 (clonogenic assay) AA8
Procedure: (§4) Clonogenic cytotoxic assays were performed with AA8 and T19 cells exposed to various concentrations of colchinine for 6 hours, 18 hours, 48 hours or continuously, and each time the clonal surviving fractions were determined.

T19 cells [3] = test: cells; assay type: cell-based, Chinese hamster
Procedure: as §4

T19 cells [4] = test: ODC (ornithine decarboxylase activity) assay of drug resistance, multidrug resistant T19 cells; assay type: cell-based, Chinese hamster; settings: for IC50: Cricetulus griseus, read-out: IC50 (ODC assay) T19; for Resistance (-fold), ODC assay, T19 versus AA8: T19/AA8 ratio of IC50
Procedure: as §1, §2, §3

[5] = target: T1, ornithine decarboxylase from AA8 cells (Cricetulus griseus, UniProt P14019); test: biochemical; settings: IC50, concentration required to reduce the ornithine decarboxylase by 50%
T1 sequence (P14019 1-455): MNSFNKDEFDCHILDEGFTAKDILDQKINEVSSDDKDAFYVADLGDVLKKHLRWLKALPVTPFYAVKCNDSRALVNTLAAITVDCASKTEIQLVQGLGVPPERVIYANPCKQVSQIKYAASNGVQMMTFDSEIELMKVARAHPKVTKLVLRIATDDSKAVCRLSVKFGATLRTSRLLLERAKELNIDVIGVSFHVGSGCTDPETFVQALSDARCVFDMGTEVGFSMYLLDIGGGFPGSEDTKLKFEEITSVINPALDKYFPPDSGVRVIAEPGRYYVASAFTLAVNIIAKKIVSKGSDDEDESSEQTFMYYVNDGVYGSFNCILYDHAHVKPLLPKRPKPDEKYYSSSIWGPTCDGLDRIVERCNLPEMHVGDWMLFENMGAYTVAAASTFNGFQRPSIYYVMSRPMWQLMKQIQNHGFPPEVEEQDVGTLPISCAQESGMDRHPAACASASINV
Procedure: Monolayer cells grown in the absence and presence of a known cytotoxic agent, were washed twice with 10 mls of phosphate-buffered saline and suspended in a petri dish (0.5 ml/10 cm) in an ice-cold ornithine decarboxylase buffer containinig 50 mM of Tris-Cl, pH=7.3, 0.1 mM ethylene diamine tetraacetic acid, 50 uM pyridoxal 5'-phosphate (Sigma) and 5 mM of dithiothreitol. The cells were lysed under three cycles of freezing in liquid nitrogen and thawing at 37° C. The cell lysates were then centrifuged at 15,000 g for 15 minutes at 4° C., the supernatant liquid was collected and used in the assay for the ornithine decarboxylase activity. The assay was based on the Djurhuss method that utilizes a strong cation-exchange paper (Anal. Biochem. 113:352-5, 1981). […] After incubation for 60 minutes at 37° C. under agitation, the reaction mixture was spotted onto a strip of P81 cellulose phosphate paper and dried. After washing in a solution of 0.1M ammonium hydroxide and drying,liquid scintillation counting was performed. In similar manner, blank values were determined by using 80 ul of ornithine decarboxylase buffer, instead of the cytosolic cell extract.

[6] = CHO-AA8, incubation time 48 hr, mean of two to four independent experiments
[7] = Cricetulus griseus, read-out: LD50 (clonogenic assay) T19
[8] = incubation time 48 hr, mean of two to four independent experiments
[9] = CHO-AA8, incubation time 18 hr, mean of two to four independent experiments
[10] = incubation time 18 hr, mean of two to four independent experiments

Compound: CN(Cc1cnc2nc(N)nc(N)c2n1)c1ccc(C(=O)N[C@@H](CCC(=O)O)C(=O)O)cc1 [Methotrexate]
- IC50 (AA8 cells [1]; [6]): 56.5 nM
- IC50 (AA8 cells [2]): 25.1 nM
- IC50 (T19 cells [3]; [7]): 30.6 nM
- Resistance (-fold), clonogenic assay, T19 versus AA8 (T19 cells [3]; hamster, t19 vs aa8 cells): 1.2 -fold
- IC50 (T19 cells [4]; [8]): 63.8 nM
- Resistance (-fold), ODC assay, T19 versus AA8 (T19 cells [4]; incubation time 48 hr): 1.1 -fold

Compound: COc1cc(NCc2ccc3nc(N)nc(N)c3c2C)cc(OC)c1OC [Trimetrexate]
- IC50 (AA8 cells [1]; [6]): 2.9 nM
- IC50 (AA8 cells [2]): 2.4 nM
- IC50 (T19 cells [3]; [7]): 68.6 nM
- Resistance (-fold), clonogenic assay, T19 versus AA8 (T19 cells [3]; hamster, t19 vs aa8 cells): 28.6 -fold
- IC50 (T19 cells [4]; [8]): 72.4 nM
- Resistance (-fold), ODC assay, T19 versus AA8 (T19 cells [4]; incubation time 48 hr): 25.0 -fold

Compound: Cc1nc(N)nc(N)c1-c1ccc(Cl)c(Cl)c1 [Metoprine]
- IC50 (AA8 cells [1]; [6]): 13.8 nM
- IC50 (AA8 cells [2]): 12.6 nM
- IC50 (T19 cells [3]; [7]): 33.7 nM
- Resistance (-fold), clonogenic assay, T19 versus AA8 (T19 cells [3]; hamster, t19 vs aa8 cells): 2.7 -fold
- IC50 (T19 cells [4]; [8]): 53.2 nM
- Resistance (-fold), ODC assay, T19 versus AA8 (T19 cells [4]; incubation time 48 hr): 3.9 -fold

Compound: NCCCC(N)(C(=O)O)C(F)F (racemic) [DMFO, DL-o-difluoromethylornithine]
- IC50 ([5]; extract of AA8-induced cells (received fresh serum-containing medium), 2x10^7 cells): 5000 nM
- IC50 ([5]; extract of non-induced AA8 cells (no fresh medium), same number of cells): 1100 nM

Compound: CC[C@]1(O)C[C@H]2CN(CCc3c([nH]c4ccccc34)[C@@](C(=O)OC)(c3cc4c(cc3OC)N(C=O)[C@H]3[C@@](O)(C(=O)OC)[C@H](OC(C)=O)[C@]5(CC)C=CCN6CC[C@]43[C@@H]65)C2)C1 [Vincristine]
- IC50 (AA8 cells [1]; [9]): 79.6 nM
- IC50 (AA8 cells [2]): 8.2 nM
- IC50 (T19 cells [3]; [7]): 229 nM
- Resistance (-fold), clonogenic assay, T19 versus AA8 (T19 cells [3]; hamster, t19 vs aa8 cells): 28.1 -fold
- IC50 (T19 cells [4]; [10]): 1530 nM
- Resistance (-fold), ODC assay, T19 versus AA8 (T19 cells [4]; incubation time 18 hr): 19.2 -fold

Compound: CC[C@]1(O)C[C@@H]2CN(CCc3c([nH]c4ccccc34)[C@@](C(=O)OC)(c3cc4c(cc3OC)N(C)[C@H]3[C@@](O)(C(=O)OC)[C@H](OC(C)=O)[C@]5(CC)C=CCN6CC[C@]43[C@@H]65)C2)C1 [Vinblastine]
- IC50 (AA8 cells [1]; [9]): 15.9 nM
- IC50 (AA8 cells [2]): 3 nM
- IC50 (T19 cells [3]; [7]): 80 nM
- Resistance (-fold), clonogenic assay, T19 versus AA8 (T19 cells [3]; hamster, t19 vs aa8 cells): 26.7 -fold
- IC50 (T19 cells [4]; [10]): 275 nM
- Resistance (-fold), ODC assay, T19 versus AA8 (T19 cells [4]; incubation time 18 hr): 17.3 -fold

Compound: COc1cc2c(c(OC)c1OC)-c1ccc(OC)c(=O)cc1[C@@H](NC(C)=O)CC2 [Colchicine]
- ornithine decarboxylase activity with increased drug concentrations (AA8 cells [1]; exposure 6, 18 and 48 hours): dose-dependent decrease
- LD50 (clonogenic assay) AA8 (AA8 cells [2]): 100 nM
- IC50 (T19 cells [3]; read-out: LD50 (50% lethal dose), clonal survival, t19 cells): 6700 nM

Compound: Cc1c2oc3c(C)ccc(C(=O)N[C@@H]4C(=O)N[C@H](C(C)C)C(=O)N5CCC[C@H]5C(=O)N(C)CC(=O)N(C)[C@@H](C(C)C)C(=O)O[C@@H]4C)c3nc-2c(C(=O)N[C@@H]2C(=O)N[C@H](C(C)C)C(=O)N3CCC[C@H]3C(=O)N(C)CC(=O)N(C)[C@@H](C(C)C)C(=O)O[C@@H]2C)c(N)c1=O [Actinomycin D] (I: T[dV]P[Sar][NMeV] / II: T[dV]P[Sar][NMeV]; ester I:1-I:C, II:1-II:C; linker I:N-II:N via Actinocin(9to1))
- IC50 (AA8 cells [1]; CHO-AA8, 18 h): 3.7 nM
- IC50 (AA8 cells [2]): 2.2 nM
- IC50 (T19 cells [3]; [7]): 49.7 nM
- Resistance (-fold), clonogenic assay, T19 versus AA8 (T19 cells [3]; ratio of LD50 T19/AA8): 22.6 -fold
- IC50 (T19 cells [4]; 18 h): 42 nM
- Resistance (-fold), ODC assay, T19 versus AA8 (T19 cells [4]; incubation time 18 hr): 11.3 -fold

Compound: COc1ccc(C[C@H](N)C(=O)N[C@H]2[C@@H](O)[C@H](n3cnc4c(N(C)C)ncnc43)O[C@@H]2CO)cc1 [Puromycin]
- IC50 (AA8 cells [1]; [6]): 10.5 nM
- IC50 (AA8 cells [2]): 4.5 nM
- IC50 (T19 cells [3]; [7]): 116 nM
- Resistance (-fold), clonogenic assay, T19 versus AA8 (T19 cells [3]; hamster, t19 vs aa8 cells): 25.8 -fold
- IC50 (T19 cells [4]; [8]): 315 nM
- Resistance (-fold), ODC assay, T19 versus AA8 (T19 cells [4]; incubation time 48 hr): 30.0 -fold

Compound: COc1cccc2c1C(=O)c1c(O)c3c(c(O)c1C2=O)C[C@@](O)(C(C)=O)C[C@@H]3O[C@H]1C[C@H](N)[C@H](O)[C@H](C)O1 [Daunorubicin]
- IC50 (AA8 cells [1]; [6]): 29.6 nM
- IC50 (AA8 cells [2]): 8.6 nM
- IC50 (T19 cells [3]; [7]): 726 nM
- Resistance (-fold), clonogenic assay, T19 versus AA8 (T19 cells [3]; hamster, t19 vs aa8 cells): 84.1 -fold
- IC50 (T19 cells [4]; [8]): 1860 nM
- Resistance (-fold), ODC assay, T19 versus AA8 (T19 cells [4]; incubation time 48 hr): 63.0 -fold

Compound: COc1cc([C@@H]2c3cc4c(cc3[C@@H](O[C@@H]3O[C@@H]5CO[C@@H](C)O[C@H]5[C@H](O)[C@H]3O)[C@H]3COC(=O)[C@H]23)OCO4)cc(OC)c1O [Etoposide]
- IC50 (AA8 cells [1]; CHO-AA8, 48 h): 366 nM
- IC50 (AA8 cells [2]): 265 nM
- IC50 (T19 cells [3]; [7]): 4200 nM
- Resistance (-fold), clonogenic assay, T19 versus AA8 (T19 cells [3]; ratio of LD50 T19/AA8): 15.9 -fold
- IC50 (T19 cells [4]; 48 h): 4180 nM
- Resistance (-fold), ODC assay, T19 versus AA8 (T19 cells [4]; incubation time 48 hr): 11.4 -fold

Compound: COc1ccc(OC)c(Cc2cnc3nc(N)nc(N)c3c2C)c1 [Piritrexim]
- IC50 (AA8 cells [1]; [6]): 5.8 nM
- IC50 (AA8 cells [2]): 4.6 nM
- IC50 (T19 cells [3]; [7]): 113 nM
- Resistance (-fold), clonogenic assay, T19 versus AA8 (T19 cells [3]; ratio of LD50 T19/AA8): 24.5 -fold
- IC50 (T19 cells [4]; [8]): 127 nM
- Resistance (-fold), ODC assay, T19 versus AA8 (T19 cells [4]; incubation time 48 hr): 22.0 -fold

Compound: COc1cccc2c1C(=O)c1c(O)c3c(c(O)c1C2=O)C[C@@](O)(C(=O)CO)C[C@@H]3O[C@H]1C[C@H](N)[C@H](O)[C@H](C)O1 [Doxorubicin]
- IC50 (AA8 cells [1]; [6]): 55 nM
- IC50 (AA8 cells [2]): 40 nM
- IC50 (T19 cells [3]; [7]): 8450 nM
- IC50 (T19 cells [4]; [8]): 3580 nM
- Resistance (-fold), ODC assay, T19 versus AA8 (T19 cells [4]; incubation time 48 hr): 65.0 -fold
